Source: PMC6154586 (Molecules : A Journal of Synthetic Chemistry and Natural …, 2017)

Assays:
Type in all cases: cell-based
Conditions in all cases: human
[1] = in vitro cytotoxicity bioassay, HepG2
Description: (§1) These two experiments were conducted according to reference procedures.

[2] = in vitro cytotoxicity bioassay, MCF-7
Description: as §1

[3] = in vitro cytotoxicity bioassay, PC-3
Description: as §1

[4] = in vitro cytotoxicity bioassay, MDA-MB-435
Description: as §1

[5] = HepG2 cells (hepatoma cell line)
[6] = MCF-7 cells (breast cancer cell line)
[7] = PC-3 cells (prostatic cancer cell line)
[8] = MDA-MB-435 cells (breast cancer cell line)

Measured: IC50

C=C1[C@@]2(C)C[C@H]3[C@]4(C)C=CC(=O)OC(C)(C)[C@H]4CC[C@]3(C)[C@]1(C(=O)OC)C(=O)[C@@](C)(O)C2=O [Compound 9, preaustinoid A2]
> 50 µM: [1]; [5] | [2]; [6] | [3]; [7] | [4]; [8]

C=C1[C@@]23C(=O)O[C@H](C)[C@]24O[C@@]2(C(=C)[C@]5(CCC(=O)OC5(C)C)C[C@@H](OC(C)=O)[C@]32C)[C@H](OC(C)=O)[C@@]1(C)OC4=O [Compound 10, 1,2-dihydro-acetoxydehydroaustin B]
> 50 µM: [1]; [5] | [2]; [6] | [3]; [7] | [4]; [8]

C=C1[C@@]23C(=O)O[C@H](C)[C@]24O[C@@]2(C(=C)[C@]5(C=CC(=O)OC5(C)C)CC[C@]32C)[C@H](OC(C)=O)[C@@]1(C)OC4=O [Compound 7, dehydroaustin]
> 50 µM: [1]; HepG2 | [2]; MCF-7 | [3]; PC-3 | [4]; MDA-MB-435

C=C1[C@@]2(C)CC3=C(C)[C@]4(C=CC(=O)OC4(C)C)CC[C@]3(C)[C@@]13C(=O)O[C@H](C)[C@@]3(O)C2=O [Compound 3, isoaustinol]
> 50 µM: [1]; HepG2 | [2]; MCF-7 | [3]; PC-3 | [4]; MDA-MB-435

C=C1[C@@]23C(=O)O[C@H](C)[C@]24O[C@@]2(C(=C)[C@]5(C=CC(=O)OC5(C)C)C[C@@H](OC(C)=O)[C@]32C)[C@H](OC(C)=O)[C@@]1(C)OC4=O [Compound 6, acetoxydehydroaustin]
> 50 µM: [1]; HepG2 | [2]; MCF-7 | [3]; PC-3 | [4]; MDA-MB-435

C=C1C2(CC(O)C(=O)OC2(C)C)CC(OC(C)=O)C2(C)C13OC14C(=O)OC(C)(C(=C)C12C(=O)OC4C)C3OC(C)=O (stereo not shown) [Compound 1, 2-hydroacetoxydehydroaustin]
> 50 µM: [1]; [5] | [2]; [6] | [3]; [7] | [4]; [8]

C=C1[C@@]23C(=O)O[C@H](C)[C@@]2(O)C(=O)O[C@]1(C)[C@@H](O)C1=C(C)[C@]2(C=CC(=O)OC2(C)C)CC[C@@]13C [Compound 5, austinol]
> 50 µM: [1]; [5] | [2]; [6] | [3]; [7] | [4]; [8]

C=C1[C@@]23C(=O)O[C@H](C)[C@]24O[C@@]2(C(=C)[C@]5(C=CC(=O)OC5(C)C)CC[C@]32C)[C@H](O)[C@@]1(C)OC4=O [Compound 8, dehydroaustinol]
> 50 µM: [1]; HepG2 | [2]; MCF-7 | [3]; PC-3 | [4]; MDA-MB-435

C=C1[C@]2(C)C(=O)[C@]3(O)[C@@H](C)OC(=O)[C@]13[C@@]1(C)CC[C@@]3(C=CC(=O)OC3(C)C)C(C)=C1[C@@H]2OC(C)=O [Compound 2, 11-acetoxyisoaustinone]
> 50 µM: [1]; [5] | [2]; [6] | [3]; [7] | [4]; [8]

C=C1[C@@]23C(=O)O[C@H](C)[C@@]2(O)C(=O)O[C@]1(C)[C@@H](OC(C)=O)C1=C(C)[C@]2(C=CC(=O)OC2(C)C)CC[C@@]13C [Compound 4, austin]
> 50 µM: [1]; HepG2 | [2]; MCF-7 | [3]; PC-3 | [4]; MDA-MB-435
